Columns and labels:
[1] = tested on: MDA-MB-231 cell line; experiment: Antiproliferative activity, MDA-MB-231 cell line (GI50); format: cell-based; details: Homo sapiens
[2] = tested on: CCNK; experiment: CCNK degradation (DC50, Dmax); format: cell-based; details: for Dmax (%): CCNK degradation
[3] = target: CDK12 (Homo sapiens, UniProt Q9NYV4); experiment: Inhibition of cyclin-dependent kinase 12 (% enzyme activity at 1 uM and IC50); format: biochemical; details: for remaining activity at 1 µM: 1 uM compound
CDK12, sequence (Q9NYV4 whole entry): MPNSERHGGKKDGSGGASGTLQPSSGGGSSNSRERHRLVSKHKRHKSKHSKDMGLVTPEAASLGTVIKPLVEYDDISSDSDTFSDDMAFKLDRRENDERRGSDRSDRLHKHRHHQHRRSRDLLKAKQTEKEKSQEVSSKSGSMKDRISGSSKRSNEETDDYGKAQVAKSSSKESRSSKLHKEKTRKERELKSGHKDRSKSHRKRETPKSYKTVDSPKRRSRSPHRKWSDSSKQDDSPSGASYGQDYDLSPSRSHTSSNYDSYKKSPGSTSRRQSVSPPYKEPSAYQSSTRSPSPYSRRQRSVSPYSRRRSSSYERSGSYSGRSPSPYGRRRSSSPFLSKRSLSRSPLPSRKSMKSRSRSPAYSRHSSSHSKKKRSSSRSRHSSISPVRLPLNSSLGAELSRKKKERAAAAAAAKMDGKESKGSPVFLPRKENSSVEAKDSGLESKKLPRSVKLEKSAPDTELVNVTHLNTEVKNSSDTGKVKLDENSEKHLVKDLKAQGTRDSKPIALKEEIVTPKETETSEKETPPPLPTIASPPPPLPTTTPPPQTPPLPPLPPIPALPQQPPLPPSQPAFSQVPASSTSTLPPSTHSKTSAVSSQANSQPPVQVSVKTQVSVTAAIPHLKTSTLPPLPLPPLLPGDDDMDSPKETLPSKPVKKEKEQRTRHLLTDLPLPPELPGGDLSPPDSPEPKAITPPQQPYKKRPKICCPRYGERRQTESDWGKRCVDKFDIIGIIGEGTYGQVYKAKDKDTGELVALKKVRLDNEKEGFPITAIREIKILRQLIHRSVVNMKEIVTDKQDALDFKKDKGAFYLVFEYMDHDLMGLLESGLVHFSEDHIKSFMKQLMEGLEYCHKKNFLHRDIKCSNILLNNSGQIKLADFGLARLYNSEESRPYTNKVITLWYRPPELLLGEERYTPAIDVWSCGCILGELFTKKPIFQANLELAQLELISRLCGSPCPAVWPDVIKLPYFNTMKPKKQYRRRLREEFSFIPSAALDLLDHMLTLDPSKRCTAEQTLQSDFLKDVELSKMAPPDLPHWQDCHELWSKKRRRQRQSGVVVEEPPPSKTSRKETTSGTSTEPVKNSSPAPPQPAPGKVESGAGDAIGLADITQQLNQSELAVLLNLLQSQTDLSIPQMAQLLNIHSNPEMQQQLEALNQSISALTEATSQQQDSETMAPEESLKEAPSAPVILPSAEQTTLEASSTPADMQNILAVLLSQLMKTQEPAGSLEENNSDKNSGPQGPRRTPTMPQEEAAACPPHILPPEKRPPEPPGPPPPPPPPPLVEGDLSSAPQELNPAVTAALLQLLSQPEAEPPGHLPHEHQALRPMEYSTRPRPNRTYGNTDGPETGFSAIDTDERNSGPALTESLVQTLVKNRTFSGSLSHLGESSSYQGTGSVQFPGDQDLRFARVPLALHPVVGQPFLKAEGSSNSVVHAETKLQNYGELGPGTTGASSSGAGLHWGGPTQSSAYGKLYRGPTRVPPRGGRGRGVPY
CDK12, sequence (O75909 whole entry partner): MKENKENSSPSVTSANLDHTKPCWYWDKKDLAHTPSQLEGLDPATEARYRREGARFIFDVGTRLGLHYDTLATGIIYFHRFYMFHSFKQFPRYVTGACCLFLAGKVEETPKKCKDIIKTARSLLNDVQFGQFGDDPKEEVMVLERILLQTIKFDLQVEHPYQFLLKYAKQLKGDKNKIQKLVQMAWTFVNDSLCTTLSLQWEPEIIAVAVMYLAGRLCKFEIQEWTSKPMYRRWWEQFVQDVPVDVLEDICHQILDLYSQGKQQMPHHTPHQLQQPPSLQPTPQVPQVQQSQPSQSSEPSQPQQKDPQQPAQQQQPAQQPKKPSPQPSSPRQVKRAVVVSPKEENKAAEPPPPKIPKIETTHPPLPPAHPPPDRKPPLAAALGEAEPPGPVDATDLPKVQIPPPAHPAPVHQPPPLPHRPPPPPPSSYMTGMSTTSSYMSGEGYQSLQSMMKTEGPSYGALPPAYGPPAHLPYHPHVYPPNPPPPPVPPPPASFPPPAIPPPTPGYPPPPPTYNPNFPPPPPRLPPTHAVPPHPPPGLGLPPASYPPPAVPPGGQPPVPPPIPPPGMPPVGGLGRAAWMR

Structure (SMILES)	GI50 [1] [nM]	DC50 [2] [nM]	Dmax (%) [2] [%]	IC50 [3] [nM]	remaining activity at 1 µM [3] [%]
NC1CCN(c2cc(NCc3nc4cc(Cl)c(Cl)cc4[nH]3)c3ncc(-c4cnn(C(F)F)c4)n3n2)C1 (centres unmarked) [Cmpd 44, 6-(3-aminopyrrolidin-1-yl)-N-((5,6-dichloro-1H-benzo[d]imidazol-2-yl)methyl)-3-(1-(difluoromethyl)-1H-pyrazol-4-yl) imidazo[1,2-b]pyridazin-8-amine]	154	440	100	1420	–
Clc1cccc2nc(CNc3cc(N4CCOCC4)nn4c(-c5ccsc5)cnc34)[nH]c12 [Cmpd 67, N-((7-chloro-1H-benzo[d]imidazol-2-yl)methyl)-6-morpholino-3-(thiophen-3-yl) imidazo[1,2-b]pyridazin-8-amine]	207	80	85	300	–
Cc1ccnc2[nH]c(CNc3cc(N4CCOCC4)nn4c(-c5cnn(C)c5)cnc34)nc12 [Cmpd 12, 3-(1-methyl-1H-pyrazol-4-yl)-N-((7-methyl-3H-imidazo[4,5-b]pyridin-2-yl)methyl)-6-morpholinoimidazo[1,2-b]pyridazin-8-amine]	5690	2100	65	1000	–
Cc1cc(-c2cnc3c(NCc4nc5c(F)cccc5[nH]4)cc(N4CCN(C)CC4)nn23)cs1 [Cmpd 93, N-((4-fluoro-1H-benzo[d]imidazol-2-yl)methyl)-6-(4-methylpiperazin-1-yl)-3-(5-methylthiophen-3-yl) imidazo[1,2-b]pyridazin-8-amine]	1250	80	80	1220	36
Clc1cccc2nc(CNc3cc(N4CCOCC4)nn4c(-c5cnn(C6CC6)c5)cnc34)[nH]c12 [Cmpd 33, N-((7-chloro-1H-benzo[d]imidazol-2-yl)methyl)-3-(1-cyclopropyl-1H-pyrazol-4-yl)-6-morpholinoimidazo[1,2-b]pyridazin-8-amine]	6160	830	65	–	60
Clc1cc2nc(CNc3cc(N4CCOCC4)nn4c(-c5cnn(C6CC6)c5)cnc34)[nH]c2cc1Cl [Cmpd 30, 3-(1-cyclopropyl-1H-pyrazol-4-yl)-N-((5,6-dichloro-1H-benzo[d]imidazol-2-yl)methyl)-6-morpholinoimidazo[1,2-b]pyridazin-8-amine]	2120	3000	70	–	83
Cc1ccnc2[nH]c(CNc3cc(N4CCN(C)CC4)nn4c(-c5cnn(C(C)C)c5)cnc34)nc12 [Cmpd 20, 3-(1-isopropyl-1H-pyrazol-4-yl)-N-((7-methyl-3H-imidazo[4,5-b]pyridin-2-yl)methyl)-6-(4-methylpiperazin-1-yl) imidazo[1,2-b]pyridazin-8-amine]	6670	10000	–	531	30
CN1CCN(c2cc(NCc3nc4cc(Cl)c(Cl)cc4[nH]3)c3ncc(-c4cnn(C(F)F)c4)n3n2)CC1 [Cmpd 41, N-((5,6-dichloro-1H-benzo[d]imidazol-2-yl)methyl)-3-(1-(difluoromethyl)-1H-pyrazol-4-yl)-6-(4-methylpiperazin-1-yl) imidazo[1,2-b]pyridazin-8-amine]	247	470	100	1000	–
CN1CCN(c2cc(NCc3nc4cccc(Cl)c4[nH]3)c3ncc(-c4ccsc4)n3n2)CC1 [Cmpd 66, N-((7-chloro-1H-benzo[d]imidazol-2-yl)methyl)-6-(4-methylpiperazin-1-yl)-3-(thiophen-3-yl) imidazo[1,2-b]pyridazin-8-amine]	180	80	85	90	–
Cc1cc(-c2cnc3c(NCc4nc5c(C)ccnc5[nH]4)cc(N4CCOCC4)nn23)cs1 [Cmpd 91, N-((7-methyl-3H-imidazo[4,5-b]pyridin-2-yl)methyl)-3-(5-methylthiophen-3-yl)-6-morpholinoimidazo[1,2-b]pyridazin-8-amine]	3940	10000	–	–	103
CN1CCN(c2cc(NCc3nc4cccc(Cl)c4[nH]3)c3ncc(-c4csc(C#N)c4)n3n2)CC1 [Cmpd 81, 4-(8-(((7-chloro-1/-benzo[d]imidazol-2-yl)methyl)amino)-6-(4-methylpiperazin-1-yl)imidazo[1,2-b]pyridazin-3-yl)thiophene-2-carbonitrile]	1920	300	80	647	33
Cc1cc(-c2cnc3c(NCc4nc5cc(Cl)c(Cl)cc5[nH]4)cc(N4CCN(C)CC4)nn23)cs1 [Cmpd 87, N-((5,6-dichloro-1H-benzo[d]imidazol-2-yl)methyl)-6-(4-methylpiperazin-1-yl)-3-(5-methylthiophen-3-yl) imidazo[1,2-b]pyridazin-8-amine]	7360	10000	–	–	82
CC(C)n1cc(-c2cnc3c(NCc4nc5c(F)cccc5[nH]4)cc(N4CCN(C)CC4)nn23)cn1 [Cmpd 26, N-((4-fluoro-1H-benzo[d]imidazol-2-yl)methyl)-3-(1-isopropyl-1H-pyrazol-4-yl)-6-(4-methylpiperazin-1-yl) imidazo[1,2-b]pyridazin-8-amine]	6070	10000	–	1110	53
Cc1noc(C)c1-c1cnc2c(NCc3nc4cc(Cl)c(Cl)cc4[nH]3)cc(N3CCOCC3)nn12 [Cmpd 100, N-((5,6-dichloro-1H-benzo[d]imidazol-2-yl)methyl)-3-(3,5-dimethylisoxazol-4-yl)-6-morpholinoimidazo[1,2-b]pyridazin-8-amine]	2030	10000	–	3000	73
CC(C)n1cc(-c2cnc3c(NCc4nc5c(F)c(F)ccc5[nH]4)cc(N4CCOCC4)nn23)cn1 [Cmpd 24, N-((4,5-difluoro-1H-benzo[d]imidazol-2-yl)methyl)-3-(1-isopropyl-1H-pyrazol-4-yl)-6-morpholinoimidazo[1,2-b]pyridazin-8-amine]	10000	2100	65	1270	60
CC(C)n1cc(-c2cnc3c(NCc4nc5cccc(Cl)c5[nH]4)cc(N4CCN(C)CC4)nn23)cn1 [Cmpd 17, N-((7-chloro-1H-benzo[d]imidazol-2-yl)methyl)-3-(1-isopropyl-1H-pyrazol-4-yl)-6-(4-methylpiperazin-1-yl) imidazo[1,2-b]pyridazin-8-amine]	5600	10000	–	919	45
CC(C)n1cc(-c2cnc3c(NCc4nc5c(F)c(F)ccc5[nH]4)cc(N4CCN(C)CC4)nn23)cn1 [Cmpd 23, N-((4,5-difluoro-1H-benzo[d]imidazol-2-yl)methyl)-3-(1-isopropyl-1H-pyrazol-4-yl)-6-(4-methylpiperazin-1-yl) imidazo[1,2-b]pyridazin-8-amine]	5180	10000	–	1110	53
CC1(C)CN(c2cc(NCc3nc4cc(Cl)c(Cl)cc4[nH]3)c3ncc(-c4cnn(C(F)F)c4)n3n2)CCN1 [Cmpd 47, N-((5,6-dichloro-1H-benzo[d]imidazol-2-yl)methyl)-3-(1-(difluoromethyl)-1H-pyrazol-4-yl)-6-(3,3-dimethylpiperazin-1-yl) imidazo[1,2-b]pyridazin-8-amine]	7	30	100	18	–
Cn1cc(-c2cnc3c(NCc4nc5c(F)c(F)ccc5[nH]4)cc(N4CCOCC4)nn23)cn1 [Cmpd 6, N-((4,5-difluoro-1H-benzo[d]imidazol-2-yl)methyl)-3-(1-methyl-1H-pyrazol-4-yl)-6-morpholinoimidazo[1,2-b]pyridazin-8-amine]	3840	460	75	3000	–
N#Cc1cc(-c2cnc3c(NCc4nc5cc(Cl)c(Cl)cc5[nH]4)cc(N4CCOCC4)nn23)cs1 [Cmpd 80, 4-(8-(((5,6-dichloro-1H-benzo[d]imidazol-2-yl)methyl)amino)-6-morpholinoimidazo[1,2-b]pyridazin-3-yl)thiophene-2-carbonitrile]	867	1000	95	3000	75
Cc1ccnc2[nH]c(CNc3cc(N4CCN(C)CC4)nn4c(-c5cnn(C(F)F)c5)cnc34)nc12 [Cmpd 57, 3-(1-(difluoromethyl)-1H-pyrazol-4-yl)-N-((7-methyl-3H-imidazo[4,5-b]pyridin-2-yl)methyl)-6-(4-methylpiperazin-1-yl) imidazo[1,2-b]pyridazin-8-amine]	419	240	65	54	–
NC1CCN(c2cc(NCc3nc4cccc(Cl)c4[nH]3)c3ncc(-c4ccsc4)n3n2)CC1 [Cmpd 70, 6-(4-aminopiperidin-1-yl)-N-((7-chloro-1H-benzo[d]imidazol-2-yl)methyl)-3-(thiophen-3-yl) imidazo[1,2-b]pyridazin-8-amine]	73	160	95	78	–
CN(C)c1cc(NCc2nc3cccc(Cl)c3[nH]2)c2ncc(-c3ccsc3)n2n1 [Cmpd 73, N8-((7-chloro-1H-benzo[d]imidazol-2-yl)methyl)-N6,N6-dimethyl-3-(thiophen-3-yl) imidazo[1,2-b]pyridazine-6,8-diamine]	5000	–	–	1000	–
CN1CCN(c2cc(NCc3nc4cc(Cl)c(Cl)cc4[nH]3)c3ncc(-c4cnn(C(F)F)c4)n3n2)CC1(C)C [Cmpd 49, N-((5,6-dichloro-1H-benzo[d]imidazol-2-yl)methyl)-3-(1-(difluoromethyl)-1H-pyrazol-4-yl)-6-(3,3,4-trimethylpiperazin-1-yl) imidazo[1,2-b]pyridazin-8-amine]	465	370	95	–	–
